Test results: ChEMBL document CHEMBL1201862, “PubChem BioAssay data set” (2004)
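A five-concentration, 48-hour dose response in 96-well plates underlies each endpoint, interpolated linearly between surrounding concentrations. Here, GI50 denotes the concentration required for 50% inhibition of growth.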 Calls of active or inactive are those of the source. Cut-off read from the data, not from the text of the source: active = GI50 up to about 1.1 µM and inactive = higher.

What was measured:
Test in all cases: inhibition of tumour cell growth, NCI panel, 48 h
[1] = tested on: SNB-78
[2] = tested on: DMS-273
[3] = tested on: M19-MEL
[4] = tested on: HOP-18
[5] = tested on: XF498
[6] = tested on: DLD-1
[7] = tested on: DMS-114
[8] = tested on: LXFL 529
[9] = tested on: RXF 631

| SMILES | GI50 [1] | GI50 [2] | GI50 [3] | GI50 [4] | GI50 [5] | GI50 [6] | GI50 [7] | GI50 [8] | GI50 [9] |
| --- | --- | --- | --- | --- | --- | --- | --- | --- | --- |
| CN1N=C(N)c2cn(C3OC(COP(=O)(O)O)C(O)C3O)c3ncnc1c23 (stereo unspecified) | 79.6 µM (inactive) | 18.9 µM (inactive) | 390 µM (inactive) | 9.14 µM (inactive) | 12.4 µM (inactive) | 1.03 µM (active) | 1620 µM (inactive) | – | – |
| CNc1ccc(/C=C2\C=Cc3ccccc32)cc1 | 44.6 µM (inactive) | 14.2 µM (inactive) | 43.2 µM (inactive) | 16.4 µM (inactive) | 40.9 µM (inactive) | 31.3 µM (inactive) | 17 µM (inactive) | 25.9 µM (inactive) | – |
| N#CCC(=O)N/N=C(\C(=O)Nc1ccc(Cl)c(Cl)c1)C1CN(c2ccccc2)N=C1N (stereo unspecified) | > 100 µM (inactive) | > 100 µM (inactive) | > 100 µM (inactive) | > 100 µM (inactive) | – | > 100 µM (inactive) | > 100 µM (inactive) | > 100 µM (inactive) | – |
| COc1ccc(/C=C/C(=O)c2sc(-c3cccnc3)nc2C)cc1 | > 100 µM (inactive) | 40.9 µM (inactive) | 67.9 µM (inactive) | 45.3 µM (inactive) | – | 39.4 µM (inactive) | 26.7 µM (inactive) | – | 54.3 µM (inactive) |
| CC1=CC(=O)C(C)(C2=NC(C)(C)CO2)c2ccccc21 (stereo unspecified) | – | – | > 100 µM (inactive) | 31.6 µM (inactive) | – | > 100 µM (inactive) | > 100 µM (inactive) | > 100 µM (inactive) | > 100 µM (inactive) |
| Cc1cc(=O)oc2c(C)c(OCCCOc3ccc4c(C)cc(=O)oc4c3C)ccc12 | > 100 µM (inactive) | > 100 µM (inactive) | > 100 µM (inactive) | > 100 µM (inactive) | > 100 µM (inactive) | > 100 µM (inactive) | > 100 µM (inactive) | > 100 µM (inactive) | – |
| O=Cc1ccc(-c2ccc(-c3ccc(C=O)s3)o2)s1 | > 72.8 µM (inactive) | 26.2 µM (inactive) | > 100 µM (inactive) | > 100 µM (inactive) | – | 74.5 µM (inactive) | > 84.1 µM (inactive) | 0.186 µM (active) | 0.541 µM (active) |
| Cc1ccccc1NC(=O)C(=O)C(C#N)c1ccccc1C (stereo unspecified) | > 100 µM (inactive) | > 100 µM (inactive) | – | > 100 µM (inactive) | 34 µM (inactive) | > 100 µM (inactive) | > 100 µM (inactive) | > 100 µM (inactive) | – |
| O=C1c2cc([N+](=O)[O-])cc3cc([N+](=O)[O-])cc(c23)C(=O)N1CCCNCCNCCCN1C(=O)c2cc([N+](=O)[O-])cc3cc([N+](=O)[O-])cc(c23)C1=O | < 0.0193 µM (active) | < 0.01 µM (active) | 0.0381 µM (active) | 0.542 µM (active) | < 0.01 µM (active) | 0.0282 µM (active) | 0.0469 µM (active) | < 0.01 µM (active) | – |
| Cn1cc(C(=O)C2CCCCC2)ccc1=O | > 100 µM (inactive) | > 100 µM (inactive) | – | – | > 100 µM (inactive) | > 100 µM (inactive) | > 100 µM (inactive) | – | > 100 µM (inactive) |
| O=S1(=O)OCCOS(=O)(=O)C1(Br)Br | > 100 µM (inactive) | > 100 µM (inactive) | > 100 µM (inactive) | – | – | > 100 µM (inactive) | > 100 µM (inactive) | > 100 µM (inactive) | – |
| Cc1c2c(cc3c(=O)ccn(CCN(C)C)c13)c(=O)ccn2CCN(C)C | 47.1 µM (inactive) | 4.18 µM (inactive) | 16.4 µM (inactive) | 15.7 µM (inactive) | 10.4 µM (inactive) | 6.84 µM (inactive) | 16.3 µM (inactive) | 4.46 µM (inactive) | – |
| FC(F)(F)C1(Br)C(c2ccccc2)=C1c1ccccc1 | 25.8 µM (inactive) | 17.9 µM (inactive) | 15.6 µM (inactive) | 16.5 µM (inactive) | 15.2 µM (inactive) | 14.7 µM (inactive) | 15.2 µM (inactive) | 14.3 µM (inactive) | 22.6 µM (inactive) |
| CC(=O)Nc1ccc(C2C(C(=O)Nc3ccccc3)=C(C)NC(C)=C2C(=O)Nc2ccccc2)cc1 | > 100 µM (inactive) | > 100 µM (inactive) | > 100 µM (inactive) | > 100 µM (inactive) | > 100 µM (inactive) | 97.5 µM (inactive) | 35.7 µM (inactive) | > 64.9 µM (inactive) | – |
| O=C1C2C(C(=O)N1c1ccccc1)C1c3ccccc3C2C2C(=O)N(c3ccccc3)C(=O)C21 (stereo unspecified) | – | 3.46 µM (inactive) | 39.5 µM (inactive) | > 100 µM (inactive) | – | 2.73 µM (inactive) | 3.08 µM (inactive) | 38.5 µM (inactive) | – |
| O=S1OC2(c3ccccc3-c3ccccc32)c2ccccc21 (stereo unspecified) | – | – | > 100 µM (inactive) | > 100 µM (inactive) | > 100 µM (inactive) | > 100 µM (inactive) | > 100 µM (inactive) | > 100 µM (inactive) | – |
| CCOC(=O)c1csc(CCCCCCc2nc(C(=O)OCC)cs2)n1 | 45.3 µM (inactive) | 41.2 µM (inactive) | 21.9 µM (inactive) | 75.5 µM (inactive) | 26.7 µM (inactive) | > 61.4 µM (inactive) | – | 56.1 µM (inactive) | > 87.7 µM (inactive) |
| CC(C)(C)OC(=O)C1=C(O)C(C(=O)OC(C)(C)C)C23CCCCC12C(C(=O)OC(C)(C)C)C(O)=C3C(=O)OC(C)(C)C (stereo unspecified) | > 100 µM (inactive) | > 100 µM (inactive) | > 100 µM (inactive) | > 100 µM (inactive) | > 100 µM (inactive) | > 100 µM (inactive) | > 100 µM (inactive) | > 100 µM (inactive) | – |
| O=C1C2=C(c3ccccc31)C(c1ccccc1Cl)NC(S)=N2 (stereo unspecified) | – | 68.7 µM (inactive) | 44.2 µM (inactive) | – | 25.6 µM (inactive) | 64.9 µM (inactive) | – | 35.3 µM (inactive) | – |
| Clc1ccc2cccc3c2c1C1OC3c2ccccc21 (stereo unspecified) | > 100 µM (inactive) | > 100 µM (inactive) | > 100 µM (inactive) | > 100 µM (inactive) | > 100 µM (inactive) | > 100 µM (inactive) | > 100 µM (inactive) | > 100 µM (inactive) | – |
| CCCCCCCCCCCC[S+](C)C | 5.2 µM (inactive) | 5.2 µM (inactive) | 1.45 µM (inactive) | 4.97 µM (inactive) | 2.69 µM (inactive) | 8.81 µM (inactive) | 2.5 µM (inactive) | – | – |
| COC(=O)c1oc([N+](=O)[O-])c(-c2ccccc2)c1-c1ccccc1 | > 100 µM (inactive) | > 100 µM (inactive) | 36.8 µM (inactive) | > 100 µM (inactive) | > 100 µM (inactive) | 76.2 µM (inactive) | 88.3 µM (inactive) | > 100 µM (inactive) | > 100 µM (inactive) |
| C=CCn1c2c(sc1=S)C(S)NC=N2 (stereo unspecified) | 78.2 µM (inactive) | > 100 µM (inactive) | > 100 µM (inactive) | 18.9 µM (inactive) | > 100 µM (inactive) | > 100 µM (inactive) | 43.7 µM (inactive) | > 100 µM (inactive) | – |
| C=C1C(=O)OC2/C=C(\C=O)CC/C=C(\C)C(O)C[C@@H]12 (stereo partly specified) | 4.24 µM (inactive) | 4.36 µM (inactive) | 5.45 µM (inactive) | 16.9 µM (inactive) | 4.99 µM (inactive) | 2.39 µM (inactive) | 11.7 µM (inactive) | 3.36 µM (inactive) | – |
